# Key:
# [1] = tested on: KRAS (DNA, G4) AGGGCGGTGTGGGAAGAGGGAAGAGGGGGAGG; assay: ITC; settings: K+ 100 mM; 100 mM Tris, 100 mM KCl, pH 7.4; 5 µM DNA, 50 µM ligand
# [2] = tested on: VEGF (DNA, G4) CGGGGCGGGCCGGGGGCGGGGT; assay: ITC; settings: K+ 100 mM; 100 mM Tris, 100 mM KCl, pH 7.4; 5 µM DNA, 50 µM ligand
# [3] = tested on: BCL2 (DNA, G4) GGGCGCGGGAGGAATTGGGCGGG; assay: ITC; settings: K+ 100 mM; 100 mM Tris, 100 mM KCl, pH 7.4; 5 µM DNA, 50 µM ligand
# [4] = tested on: c-KIT1 (DNA, G4) GGGAGGGCGCTGGGAGGGAGGG; assay: ITC; settings: K+ 100 mM; 100 mM Tris, 100 mM KCl, pH 7.4; main text prints ~3.3 µM
# [5] = tested on: c-KIT2 (DNA, G4) GGGCGGGCGCGAGGGAGGGG; assay: ITC; settings: K+ 100 mM; 100 mM Tris, 100 mM KCl, pH 7.4; main text prints ~2.6 µM
# [6] = tested on: c-MYC27 (DNA, G4) TGAGGGTGGGTAGGGTGGGTAA; assay: ITC; settings: K+ 100 mM; 100 mM Tris, 100 mM KCl, pH 7.4; 5 µM DNA, 50 µM ligand
# [7] = tested on: dsDNA (dual-labeled) (DNA, duplex) CAATCGGATCGAATTCGATCCGATTG; assay: FRET melting; settings: K+ 60 mM; 60 mM K-cacodylate (table note: Tris-HCl/KCl), pH 7.4; 1 µM compound
# [8] = tested on: KRAS (DNA, G4) AGGGCGGTGTGGGAAGAGGGAAGAGGGGGAGG; assay: fluorescence titration of ligand, Hill fit; settings: K+; 100 mM Tris-KCl, pH 7.4, 25 °C; excitation 300 nm
# [9] = tested on: BCL2 (DNA, G4) GGGCGCGGGAGGAATTGGGCGGG; assay: fluorescence titration of ligand, Hill fit; settings: K+; 100 mM Tris-KCl, pH 7.4, 25 °C; excitation 300 nm
# [10] = tested on: c-KIT1 (DNA, G4) GGGAGGGCGCTGGGAGGGAGGG; assay: fluorescence titration of ligand, Hill fit; settings: K+; 100 mM Tris-KCl, pH 7.4, 25 °C; excitation 300 nm
# [11] = tested on: c-KIT2 (DNA, G4) GGGCGGGCGCGAGGGAGGGG; assay: fluorescence titration of ligand, Hill fit; settings: K+; 100 mM Tris-KCl, pH 7.4, 25 °C; excitation 300 nm
# [12] = tested on: c-MYC27 (DNA, G4) TGAGGGTGGGTAGGGTGGGTAA; assay: fluorescence titration of ligand, Hill fit; settings: K+; 100 mM Tris-KCl, pH 7.4, 25 °C; excitation 300 nm
# [13] = tested on: dsDNA (DNA, duplex) CAATCGGATCGAATTCGATCCGATTG; assay: fluorescence titration of ligand, Hill fit; settings: K+; 100 mM Tris-KCl, pH 7.4, 25 °C; main text: no substantial spectral change with dsDNA, ITC negligible
Structure (SMILES),KD [1],KD [2],KD [3],KD [4],KD [5],KD [6],ΔTm [7],Kd [8],KD [9],KD [10],KD [11],KD [12],KD [13],Kd [9]
Nc1nc(C(=O)Nc2nc(C(=O)NCc3cn(-c4ccc(NC(=O)[C@@H]5CCCN5)cc4)nn3)cs2)cs1,0.53 ± 0.25 µM,17.7 ± 4 µM,3 ± 0.1 µM,2.2 ± 1 µM,3.7 ± 0.3 µM,2.28 ± 0.74 µM,0.07 °C,0.8 µM,1.5 µM,2 µM,1.5 µM,2.5 µM,2.2 µM,–
C[n+]1cc(NC(=O)c2ccc3ccc4ccc(C(=O)Nc5cc6ccccc6[n+](C)c5)nc4c3n2)cc2ccccc21,–,–,–,–,–,–,0.01 °C,–,–,–,–,–,–,–
Nc1nc(C(=O)Nc2ccc(-n3cc(CNC(=O)c4csc(NC(=O)c5csc(N)n5)n4)nn3)cc2)cs1,–,–,–,–,–,–,–,–,–,–,–,–,–,1.8 µM

# Reference: publication PMC12519992 (2025)
